Values quoted from earlier work, collected in PubChem BioAssay AID1259409 (Chemical Carcinogenesis Research Information System (CCRIS), 2018).

Test system: rodent chemically induced tumor inhibition, incidence and multiplicity
Experiment: CCRIS tumor inhibitor studies
Details: Route [Inhibitor]: ORAL, Species: HAMSTER, Promoter: NONE USED
Source text: The CCRIS database contains chemical records with carcinogenicity, mutagenicity, tumor promotion, and tumor inhibition test results. It was developed by the National Cancer Institute (NCI). Data are derived from studies cited in primary journals, current awareness tools, NCI reports, and other sources. Test results have been reviewed by experts in carcinogenesis and mutagenesis.
CCRIS provides historical information from the years 1985 - 2011. It is no longer updated.
This is an archive assay for CCRIS tumor inhibitor studies.

CC1=C(/C=C/C(C)=C/C=C/C(C)=C\C(=O)O)C(C)(C)CCC1
tumour outcome (control, treated, inhibition, significance) (Carcinogen: N-NITROBIS(2-OXOPROPYL)AMINE, 60559-38-4, Dose [Inhibitor]: 0.4 OR 0.8 MMOL/KG DIET DAILY STARTING 1 WK AFTER CARCINOGEN TREATMENT AND CONTINUING THROUGH THE END OF THE STUDY (STUD, Strain/Sex: SYRIAN/FEMALE, Target Tissue: Type of Lesion: PANCREAS: DUCTULAR ADENOMA, Dose [Carcinogen]: 40 MG/KG BW ONCE): 12/20 (60%), 7/14 (50%), 17%, not significant
tumour outcome (control, treated, inhibition, significance) (Carcinogen: N-NITROBIS(2-OXOPROPYL)AMINE, 60559-38-4, Dose [Inhibitor]: 0.4 OR 0.8 MMOL/KG DIET DAILY STARTING 1 WK AFTER CARCINOGEN TREATMENT AND CONTINUING THROUGH THE END OF THE STUDY (STUD, Strain/Sex: SYRIAN/FEMALE, Target Tissue: Type of Lesion: PANCREAS: DUCTULAR CARCINOMA, Dose [Carcinogen]: 10 MG/KG BW ONCE): 6/23 (27%), 3/23 (13%), 52%, not significant
tumour outcome (control, treated, inhibition, significance) (Carcinogen: N-NITROBIS(2-OXOPROPYL)AMINE, 60559-38-4, Dose [Inhibitor]: 0.4 OR 0.8 MMOL/KG DIET DAILY STARTING 1 WK AFTER CARCINOGEN TREATMENT AND CONTINUING THROUGH THE END OF THE STUDY (STUD, Strain/Sex: SYRIAN/FEMALE, Target Tissue: Type of Lesion: PANCREAS: DUCTULAR CARCINOMA, Dose [Carcinogen]: 40 MG/KG BW ONCE): 6/20 (30%), 9/14 (64%), -113%, not significant
tumour outcome (control, treated, inhibition, significance) (Carcinogen: N-NITROBIS(2-OXOPROPYL)AMINE, 60559-38-4, Dose [Inhibitor]: 0.4 OR 0.8 MMOL/KG DIET DAILY STARTING 1 WK AFTER CARCINOGEN TREATMENT AND CONTINUING THROUGH THE END OF THE STUDY (STUD, Strain/Sex: SYRIAN/MALE, Target Tissue: Type of Lesion: PANCREAS: DUCTULAR CARCINOMA, Dose [Carcinogen]: 40 MG/KG BW ONCE): 5/24 (21%), 9/24 (38%), -81%, not significant
tumour outcome (control, treated, inhibition, significance) (Carcinogen: N-NITROBIS(2-OXOPROPYL)AMINE, 60559-38-4, Dose [Inhibitor]: 0.4 OR 0.8 MMOL/KG/D IN DIET STARTING 1 WK AFTER CARCINOGEN TREATMENT AND CONTINUING THROUGH THE END OF THE STUDY (STUDY, Strain/Sex: SYRIAN/MALE, Target Tissue: Type of Lesion: LIVER: BENIGN TUMOR, Dose [Carcinogen]: 40 MG/KG BW ONCE): 21%, 48%, -129%, not significant
tumour outcome (control, treated, inhibition, significance) (Carcinogen: N-NITROBIS(2-OXOPROPYL)AMINE, 60559-38-4, Dose [Inhibitor]: 0.4 OR 0.8 MMOL/KG/D IN DIET STARTING 1 WK AFTER CARCINOGEN TREATMENT AND CONTINUING THROUGH THE END OF THE STUDY (STUDY, Strain/Sex: SYRIAN/MALE, Target Tissue: Type of Lesion: PANCREAS: DUCTULAR ADENOMA, Dose [Carcinogen]: 10 MG/KG BW ONCE): 3/22 (14%), 20/36 (56%), -300%, p<0.05
tumour outcome (control, treated, inhibition, significance) (Carcinogen: N-NITROBIS(2-OXOPROPYL)AMINE, 60559-38-4, Dose [Inhibitor]: 0.4 OR 0.8 MMOL/KG/D IN DIET STARTING 1 WK AFTER CARCINOGEN TREATMENT AND CONTINUING THROUGH THE END OF THE STUDY (STUDY, Strain/Sex: SYRIAN/MALE, Target Tissue: Type of Lesion: PANCREAS: DUCTULAR CARCINOMA, Dose [Carcinogen]: 10 MG/KG BW ONCE): 4/22 (18%), 8/36 (22%), -22%, not significant
tumour outcome (control, treated, inhibition, significance) (Carcinogen: N-NITROBIS(2-OXOPROPYL)AMINE, 60559-38-4, Dose [Inhibitor]: 0.5 OR 1.0 MMOL/KG/D IN DIET STARTING 1 WK AFTER CARCINOGEN TREATMENT AND CONTINUING THROUGH THE END OF THE STUDY (STUDY, Strain/Sex: SYRIAN/FEMALE, Target Tissue: Type of Lesion: PANCREAS: DUCTULAR ADENOMA, Dose [Carcinogen]: 10 MG/KG BW ONCE): 5/23 (22%), 9/23 (39%), -77%, not significant
tumour outcome (control, treated, inhibition, significance) (Carcinogen: N-NITROBIS(2-OXOPROPYL)AMINE, 60559-38-4, Dose [Inhibitor]: 0.5 OR 1.0 MMOL/KG/D IN DIET STARTING 1 WK AFTER CARCINOGEN TREATMENT AND CONTINUING THROUGH THE END OF THE STUDY (STUDY, Strain/Sex: SYRIAN/FEMALE, Target Tissue: Type of Lesion: PANCREAS: DUCTULAR CARCINOMA, Dose [Carcinogen]: 10 MG/KG BW ONCE): 6/23 (27%), 3/23 (13%), 52%, not significant
tumour outcome (control, treated, inhibition, significance) (Carcinogen: N-NITROSOBIS(2-OXYPROPYL)AMINE, 60599-38-4, Dose [Inhibitor]: 0.05, 0.1 OR 0.2 MILLIMOLAR/KG DIET FOR 32 WK STARTING 1 WK AFTER THE CARCINOGEN DOSE (STUDY DURATION: 33 WK), Strain/Sex: SYRIAN/FEMALE, Target Tissue: Type of Lesion: LUNG: ADENOMA, Dose [Carcinogen]: 40 MG/KG ONCE): 3/10 (30%), 6/26 (23%), 23%, not significant
tumour outcome (control, treated, inhibition, significance) (Carcinogen: N-NITROSOBIS(2-OXYPROPYL)AMINE, 60599-38-4, Dose [Inhibitor]: 0.05, 0.1 OR 0.2 MILLIMOLAR/KG DIET FOR 32 WK STARTING 1 WK AFTER THE CARCINOGEN DOSE (STUDY DURATION: 33 WK), Strain/Sex: SYRIAN/MALE, Target Tissue: Type of Lesion: COMMON DUCT: ADENOMA, Dose [Carcinogen]: 40 MG/KG ONCE): 4/12 (33%), 17/29 (59%), -78%, not significant
tumour outcome (control, treated, inhibition, significance) (Carcinogen: N-NITROSOBIS(2-OXYPROPYL)AMINE, 60599-38-4, Dose [Inhibitor]: 0.05, 0.1 OR 0.2 MILLIMOLAR/KG DIET FOR 32 WK STARTING 1 WK AFTER THE CARCINOGEN DOSE (STUDY DURATION: 33 WK), Strain/Sex: SYRIAN/MALE, Target Tissue: Type of Lesion: GALL BLADDER: ADENOMA, Dose [Carcinogen]: 40 MG/KG ONCE): 3/12 (25%), 12/29 (41%), -64%, not significant
tumour outcome (control, treated, inhibition, significance) (Carcinogen: N-NITROSOBIS(2-OXYPROPYL)AMINE, 60599-38-4, Dose [Inhibitor]: 0.05, 0.1 OR 0.2 MILLIMOLAR/KG DIET FOR 32 WK STARTING 1 WK AFTER THE CARCINOGEN DOSE (STUDY DURATION: 33 WK), Strain/Sex: SYRIAN/MALE, Target Tissue: Type of Lesion: LIVER: ADENOMA, Dose [Carcinogen]: 40 MG/KG ONCE): 50%, 41%, 18%, not significant
tumour outcome (control, treated, inhibition, significance) (Carcinogen: N-NITROSOBIS(2-OXYPROPYL)AMINE, 60599-38-4, Dose [Inhibitor]: 0.05, 0.1 OR 0.2 MILLIMOLAR/KG DIET FOR 32 WK STARTING 1 WK AFTER THE CARCINOGEN DOSE (STUDY DURATION: 33 WK), Strain/Sex: SYRIAN/MALE, Target Tissue: Type of Lesion: LUNG: ADENOMA, Dose [Carcinogen]: 40 MG/KG ONCE): 1/12 (8%), 2/29 (3%), 63%, not significant
tumour outcome (control, treated, inhibition, significance) (Carcinogen: N-NITROSOBIS(2-OXYPROPYL)AMINE, 60599-38-4, Dose [Inhibitor]: 0.05, 0.1 OR 0.2 MILLIMOLAR/KG DIET FOR 32 WK STARTING 1 WK AFTER THE CARCINOGENDOSE (STUDY DURATION: 33 WK), Strain/Sex: SYRIAN/FEMALE, Target Tissue: Type of Lesion: COMMON DUCT: ADENOMA, Dose [Carcinogen]: 40 MG/KG ONCE): 4/10 (40%), 11/26 (42%), -5%, not significant
tumour outcome (control, treated, inhibition, significance) (Carcinogen: N-NITROSOBIS(2-OXYPROPYL)AMINE, 60599-38-4, Dose [Inhibitor]: 0.05, 0.1 OR 0.2 MILLIMOLAR/KG DIET FOR 32 WK STARTING 1 WK AFTER THE CARCINOGENDOSE (STUDY DURATION: 33 WK), Strain/Sex: SYRIAN/FEMALE, Target Tissue: Type of Lesion: GALL BLADDER: ADENOMA, Dose [Carcinogen]: 40 MG/KG ONCE): 6/10 (60%), 2/26 (18%), 70%, not significant
tumour outcome (control, treated, inhibition, significance) (Carcinogen: N-NITROSOBIS(2-OXYPROPYL)AMINE, 60599-38-4, Dose [Inhibitor]: 0.05, 0.1 OR 0.2 MILLIMOLAR/KG DIET FOR 32 WK STARTING 1 WK AFTER THE CARCINOGENDOSE (STUDY DURATION: 33 WK), Strain/Sex: SYRIAN/FEMALE, Target Tissue: Type of Lesion: LIVER : ADENOMA, Dose [Carcinogen]: 40 MG/KG ONCE): 6/10 (60%), 10/26 (39%), 35%, not significant
tumour outcome (control, treated, inhibition, significance) (Carcinogen: N-NITROSOBIS(2-OXYPROPYL)AMINE, 60599-38-4, Dose [Inhibitor]: 0.05, 0.1 OR 0.2 MILLIMOLAR/KG DIET FOR 32 WK STARTING 1 WK AFTER THE CARCINOGENDOSE (STUDY DURATION: 33 WK), Strain/Sex: SYRIAN/FEMALE, Target Tissue: Type of Lesion: PANCREAS: ADENOMA, Dose [Carcinogen]: 40 MG/KG ONCE): 10/10 (100%), 26/26 (100%), 0%, not significant
tumour outcome (control, treated, inhibition, significance) (Carcinogen: N-NITROSOBIS(2-OXYPROPYL)AMINE, 60599-38-4, Dose [Inhibitor]: 0.05, 0.1 OR 0.2 MILLIMOLAR/KG DIET FOR 32 WK STARTING 1 WK AFTER THE CARCINOGENDOSE (STUDY DURATION: 33 WK), Strain/Sex: SYRIAN/FEMALE, Target Tissue: Type of Lesion: PANCREAS: CARCINOMA, Dose [Carcinogen]: 40 MG/KG ONCE): 4/10 (40%), 14/26 (54%), -35%, not significant
tumour outcome (control, treated, inhibition, significance) (Carcinogen: N-NITROSOBIS(2-OXYPROPYL)AMINE, 60599-38-4, Dose [Inhibitor]: 0.05, 0.1 OR 0.2 MILLIMOLAR/KG DIET FOR 32 WK STARTING 1 WK AFTER THE CARCINOGENDOSE (STUDY DURATION: 33 WK), Strain/Sex: SYRIAN/MALE, Target Tissue: Type of Lesion: PANCREAS: ADENOMA, Dose [Carcinogen]: 40 MG/KG ONCE): 12/12 (100%), 29/29 (100%), 0%, not significant
tumour outcome (control, treated, inhibition, significance) (Carcinogen: N-NITROSOBIS(2-OXYPROPYL)AMINE, 60599-38-4, Dose [Inhibitor]: 0.05, 0.1 OR 0.2 MILLIMOLAR/KG DIET FOR 32 WK STARTING 1 WK AFTER THE CARCINOGENDOSE (STUDY DURATION: 33 WK), Strain/Sex: SYRIAN/MALE, Target Tissue: Type of Lesion: PANCREAS: CARCINOMA, Dose [Carcinogen]: 40 MG/KG ONCE): 6/12 (50%), 12/29 (41%), 18%, not significant
